System: finishing pigs
Assay: Growth performance and carcass composition of finishing pigs
Format: in vivo, pig
Details: for lb FFL: fat free lean; for L side / R side: carcass; for lbs FFL/D: fat free lean gain per day
Source text: Pigs were blocked by weight and allotted to one of four treatments with ten replicate pens per treatment. Pigs were housed with one pig per pen in an environmentally controlled finishing barn with 4 ft×4 ft slatted pens.
All animals were fed a corn-soybean meal diet with 1% corn oil. […] Final SARM concentrations were 1, 3, and 10 ppm. All animals were fed their respective diets for the duration of the study.
Pigs were allowed ad libitum access to feed and water. Pigs and feeders were weighed on day 7, 14, 21, and 28 to calculate average daily gain (ADG), average daily feed intake (ADFI), and feed-to-gain ratio (F/G or F:G). Each pen served as an experimental unit for all statistical analysis.
Pigs were slaughtered at the Kansas State University Meats Laboratory at the end of the study for collection of individual carcass data. At 24 hours postmortem, the right side of the carcass was frozen at −40° C. for approximately […]. After freezing, sides were ground once through a grinder equipped with a 19 mm die, then mixed and ground through a second grinder equipped with a 9.5 mm die. A sub sample of ground carcass was then chemically analyzed to determine percentages of crude protein, moisture/dry matter, lipid, and ash. Carcass measurements were done on the left side of the carcass, and a sample of lean and fat was taken from the longissimus at approximately the 10th rib.
The data were analyzed as a randomized complete-block design. Analysis of variance was performed by using the MIXED procedure of SAS. Linear and quadratic contrasts were used to evaluate the effects of increasing the level of the SARM on growth and carcass performance.

For `C[C@](O)(COc1ccc(Cl)c(F)c1)C(=O)Nc1ccc(C#N)c(C(F)(F)F)c1` [S-II, (S)-3-(4-chloro-3-fluorophenoxy)-N-(4-cyano-3-(trifluoromethyl)phenyl)-2-hydroxy-2-methylpropanamide], the “Carcass Wt” value (1 PPM) was 201, the “Live Wt” value (1 PPM) was 289 and the “Carcass Wt” value (3 PPM) was 200. For the same compound, the “Live Wt” value (3 PPM) was 288, the “Carcass Wt” value (10 PPM) was 197 and the “Live Wt” value (10 PPM) was 281. For the same compound, the “ADFI (average daily feed intake)” value (Day 0-7, 1 ppm in diet) was 7.56, the “ADG (average daily gain)” value (Day 0-7, 1 ppm in diet) was 2.89 and the “ADFI (average daily feed intake)” value (Day 0-7, 3 ppm in diet) was 7.54. For the same compound, the “ADG (average daily gain)” value (Day 0-7, 3 ppm in diet) was 2.37, the “ADG (average daily gain)” value (Day 0-7, 10 ppm in diet) was 2.17 and the “ADFI (average daily feed intake)” value (Day 0-7, 10 ppm in diet, listed as SARM) was 7.4. For the same compound, the “ADG (average daily gain)” value (Day 0-28 (total), 1 ppm in diet) was 2.74, the “ADG (average daily gain)” value (Day 0-28 (total), 3 ppm in diet, listed as SARM) was 2.7 and the “ADG (average daily gain)” value (Day 0-28 (total), 10 ppm in diet, listed as SARM) was 2.5. The “ADFI (average daily feed intake)” value (Day 0-28, 1 ppm in diet) was 8.28, the “ADFI (average daily feed intake)” value (Day 0-28, 3 ppm in diet) was 8.38 and the “ADFI (average daily feed intake)” value (Day 0-28, 10 ppm in diet) was 7.85. For the same compound, the “ADFI (average daily feed intake)” value (Day 8-14, 1 ppm in diet) was 8.74, the “ADG (average daily gain)” value (Day 8-14, 1 ppm in diet) was 2.59 and the “ADG (average daily gain)” value (Day 8-14, 3 ppm in diet) was 2.65. The “ADFI (average daily feed intake)” value (Day 8-14, 3 ppm in diet, listed as SARM) was 8.5, the “ADFI (average daily feed intake)” value (Day 8-14, 10 ppm in diet) was 7.89 and the “ADG (average daily gain)” value (Day 8-14, 10 ppm in diet) was 2.37. For the same compound, the “ADFI (average daily feed intake)” value (Day 15-21, 1 ppm in diet) was 8.33, the “ADG (average daily gain)” value (Day 15-21, 1 ppm in diet) was 2.33 and the “ADFI (average daily feed intake)” value (Day 15-21, 3 ppm in diet) was 8.61. The “ADG (average daily gain)” value (Day 15-21, 3 ppm in diet) was 2.65, the “ADFI (average daily feed intake)” value (Day 15-21, 10 ppm in diet) was 7.78 and the “ADG (average daily gain)” value (Day 15-21, 10 ppm in diet) was 2.43. The “ADFI (average daily feed intake)” value (Day 22-28, 1 ppm in diet) was 8.51, the “ADG (average daily gain)” value (Day 22-28, 1 ppm in diet) was 3.15 and the “ADFI (average daily feed intake)” value (Day 22-28, 3 ppm in diet) was 8.89. The “ADG (average daily gain)” value (Day 22-28, 3 ppm in diet) was 3.15, the “ADFI (average daily feed intake)” value (Day 22-28, 10 ppm in diet) was 8.33 and the “ADG (average daily gain)” value (Day 22-28, 10 ppm in diet) was 3.03. For the same compound, the Gain (Days 0-7, 1 PPM) was 20.3, the Gain (Days 0-7, 3 PPM) was 16.6 and the Gain (Days 0-7, 10 PPM) was 15.2. It also gave a Gain (Days 8-14, 1 PPM) of 18.2, a Gain (Days 8-14, 3 PPM) of 18.6 and a Gain (Days 8-14, 10 PPM) of 16.6. For the same compound, the Gain (Days 15-21, 1 PPM) was 16.3, the Gain (Days 15-21, 3 PPM) was 18.5 and the Gain (Days 15-21, 10 PPM) was 17.0. The Gain (Days 22-28, 1 PPM) was 22.0, the Gain (Days 22-28, 3 PPM) was 22.0 and the Gain (Days 22-28, 10 PPM) was 21.2. The “average daily gain (ADG) over the course of the study, trend” value (FIG. 5A) was “increased”, the “fat free lean gain per day, trend” value (FIG. 5C) was “increased” and the “ADG for days 21-28, trend” value (FIG. 5D) was “dramatically increased”. The “improvement in lean percent” value (SARM-treated pigs vs control) was ≤ 2%, the “improvement in pounds of fat free lean” value (SARM-treated pigs vs control) was ≤ 2% and the “increase in loin eye area (LEA)” value (SARM-treated pigs vs control) was ≤ 4%. For the same compound, the 1st rib fat (Table 6, 1 ppm) was 1.47 in, the 10th rib fat (Table 6, 1 ppm) was 0.78 in and the Dress (Table 6, 1 ppm) was 69.6%. The Fat free lean (Table 6, 1 ppm) was 106.9 lb, the “Heart Wt” value (Table 6, 1 ppm) was 1.04 lb and the “Kidney Wt” value (Table 6, 1 ppm) was 1.2 lb. For the same compound, the LEA (Table 6, 1 ppm) was 7.26 in^2, the “Last lumbar fat (row head printed only as 'in')” value (Table 6, 1 ppm) was 0.77 in and the Last rib fat (Table 6, 1 ppm) was 0.9 in. For the same compound, the Lean (Table 6, 1 ppm) was 53.2%, the “Liver Wt” value (Table 6, 1 ppm) was 4.58 lb and the 1st rib fat (Table 6, 3 ppm) was 1.48 in. For the same compound, the 10th rib fat (Table 6, 3 ppm) was 0.8 in, the Dress (Table 6, 3 ppm) was 69.3% and the Fat free lean (Table 6, 3 ppm) was 105.5 lb. The “Heart Wt” value (Table 6, 3 ppm) was 1.07 lb, the “Kidney Wt” value (Table 6, 3 ppm) was 1.18 lb and the LEA (Table 6, 3 ppm) was 7.22 in^2. For the same compound, the “Last lumbar fat (row head printed only as 'in')” value (Table 6, 3 ppm) was 0.82 in, the Last rib fat (Table 6, 3 ppm) was 0.91 in and the Lean (Table 6, 3 ppm) was 52.9%. The “Liver Wt” value (Table 6, 3 ppm) was 4.95 lb, the 1st rib fat (Table 6, 10 ppm) was 1.43 in and the 10th rib fat (Table 6, 10 ppm) was 0.74 in. For the same compound, the Dress (Table 6, 10 ppm) was 70%, the Fat free lean (Table 6, 10 ppm) was 106.7 lb and the “Heart Wt” value (Table 6, 10 ppm) was 1.01 lb. The “Kidney Wt” value (Table 6, 10 ppm) was 1.16 lb, the LEA (Table 6, 10 ppm) was 7.59 in^2 and the “Last lumbar fat (row head printed only as 'in')” value (Table 6, 10 ppm) was 0.74 in. The Last rib fat (Table 6, 10 ppm) was 0.86 in, the Lean (Table 6, 10 ppm) was 54.3% and the “Liver Wt” value (Table 6, 10 ppm) was 4.84 lb. For the same compound, the 1st rib fat (Table 7, 1 PPM) was 1.47, the 10th rib fat (Table 7, 1 PPM) was 0.780 and the Dress % (Table 7, 1 PPM) was 70%. The “Heart Wt” value (Table 7, 1 PPM) was 1.04, the “Kidney Wt” value (Table 7, 1 PPM) was 1.20 and the Last lumbar fat (Table 7, 1 PPM) was 0.770. For the same compound, the Last rib fat (Table 7, 1 PPM) was 0.900, the “Liver Wt” value (Table 7, 1 PPM) was 4.58 and the 1st rib fat (Table 7, 3 PPM) was 1.48. The 10th rib fat (Table 7, 3 PPM) was 0.800, the Dress % (Table 7, 3 PPM) was 69% and the “Heart Wt” value (Table 7, 3 PPM) was 1.07. The “Kidney Wt” value (Table 7, 3 PPM) was 1.18, the Last lumbar fat (Table 7, 3 PPM) was 0.815 and the Last rib fat (Table 7, 3 PPM) was 0.905. The “Liver Wt” value (Table 7, 3 PPM) was 4.95, the 1st rib fat (Table 7, 10 PPM) was 1.43 and the 10th rib fat (Table 7, 10 PPM) was 0.735. For the same compound, the Dress % (Table 7, 10 PPM) was 70%, the “Heart Wt” value (Table 7, 10 PPM) was 1.01 and the “Kidney Wt” value (Table 7, 10 PPM) was 1.16. The Last lumbar fat (Table 7, 10 PPM) was 0.740, the Last rib fat (Table 7, 10 PPM) was 0.855 and the “Liver Wt” value (Table 7, 10 PPM) was 4.84. For the same compound, the “lb FFL” value (Table 7, 1 PPM) was 107 lb, the “lb FFL” value (Table 7, 3 PPM) was 106 lb and the “lb FFL” value (Table 7, 10 PPM) was 107 lb. It also gave an LEA (Table 7, loin eye area, 1 PPM) of 7.26, an LEA (Table 7, loin eye area, 3 PPM) of 7.22 and an LEA (Table 7, loin eye area, 10 PPM) of 7.59. It also gave a L side (1 PPM) of 98.0, a R side (1 PPM) of 103 and a L side (3 PPM) of 97.7. It also gave a R side (3 PPM) of 102, a L side (10 PPM) of 96.8 and a R side (10 PPM) of 99.8. The “lbs FFL/D” value (1 PPM) was 0.822 lbs/D, the “lbs FFL/D” value (3 PPM) was 0.774 lbs/D and the “lbs FFL/D” value (10 PPM) was 0.814 lbs/D. The “Day 0-7 F:G, effect of treatment” value (linear contrast) was “significantly increased”, the “Day 8-14 average daily feed intake (ADFI), effect of treatment” value (linear contrast) was “decreased” and the “carcass crude fat, effect of feeding” value (pig, in vivo) was “reducing”.

From patent US9278914B2, “SARMs and method of use thereof” (UNIVERSITY OF TENNESSEE RESEARCH FOUNDATION, priority 2004, dated 2016)
